# Assay results taken from US5514648A, “Fungicidally active compounds” (priority 1990, dated 1996).
# Where a SMILES comes first, the peptide text is derived from it. [ ]: non-standard residue; d: D form. NMeI = CC[C@H](C)[C@H](NC)C(=O)O; NMeD = CN[C@@H](CC(=O)O)C(=O)O; NMeV = CN[C@H](C(=O)O)C(C)C; Pip = O=C(O)[C@@H]1CCCCN1; dLac = C[C@@H](O)C(=O)O
# Assays:
# Ames spot tests = format: cell-based; details: crystalline compound
# Text: The toxicity of BK 202 was investigated in the following tests using the compound of formula IV in crystaline form: […]
# Ames spot tests and in vitro testing of dermal irritation (Skintex®).
# Botrytis cinerea [1] = test: Activity against Botrytis cinerea on apples (Golden Delicious); format: in vivo; details: suspension 9.8 μg active ingredient per ml; inoculated the following day; one week, 18°-20° C.; untreated fruits 100% infected
# Experimental: Artificially injured apples were sprayed with a suspension containing 9.8 μg active ingredient per ml.On the following day the treated fruits were inoculated with a spore suspension of the fungus containing 1×10^5 /ml, and incubated for a week at high air humidity and 18°-20° C. At the evaluation the infected places of injury were counted and from that the fungicidal effect of the test substance evaluated. […] The untreated fruits were 100% infected with Botrytis cinerea.
# Zygomycetous species = test: Fungicidal activity, mycelial growth on potato dextrose agar; format: cell-based, Zygomycetes; details: 25 to 0.0016 μg a.i. per ml agar
# Experimental: (§1) Experiments were carried out to determine the potency of the compound of formula IV towards various fungi. The active ingredient was dissolved in 60% ethanol and added to cooled potato dextrose agar to give final concentrations of 25, 5, 1, 0.2, 0.04 and 0.0016 μg a.i. per ml agar, respectively. Control dishes contained no active ingredient.
# (§2) 10 ml Agar was poured into 9 cm petri dishes and each concentration was inoculated with actively growing mycelium of the fungal isolates tested for. The dishes were incubated at the optimum temperature for growth of the isolates for 3 to 6 days after which time the growth was measured in mm and compared to the controls.
# (§3) The test isolates covered a broad range of fungi within the Oomycetes, the Ascomycetes, the Basidiornycetes, the Deuterornycetes, and the Zygomycetes.
# V. inequalis = test: as above; format: cell-based, Venturia inequalis; details: in as low concentrations as 0.0016 μg/ml, 3 to 6 days
# Experimental: as §1, §2, §3
# A. pisi = test: as above; format: cell-based, Ascochyta pisi; details: in as low concentrations as 0.0016 μg/ml, 3 to 6 days
# Experimental: as §1, §2, §3
# P. teres = test: as above; format: cell-based, Pyrenophora teres; details: in as low concentrations as 0.0016 μg/ml, 3 to 6 days
# Experimental: as §1, §2, §3
# B. cinerea = test: as above; format: cell-based, Botrytis cinerea; details: in as low concentrations as 0.0016 μg/ml, 3 to 6 days
# Experimental: as §1, §2, §3
# [2] = test system: Botrytis cinerea isolate B (resistant to BENLATE®, ROVRAL® and SUMISCLEX®); test: In vitro agar growth assay, fungicide resistant Botrytis cinerea; format: cell-based; details: 3 days, 25 C, control 80
# Experimental: (§4) Activity against fungicide resistant Botrytis cinerea isolates One isolate resistant to BENLATE® (isolate A), and one isolate resistant to BENLATE®,ROVRAL® and SUMISCLEX® (isolate B) were isolated from plants which had been sprayed with the above mentioned pesticides. The effect of BK 202 on these isolates was determined in an in vitro assay and compared with the three commercial pesticides. The fungicides were added to agar and dispensed in petri dishes at different concentrations and were inoculated with a sensitive (normal(isolate C)) and the two resistant strains. After 3 days at a temperature of 25 C growth was measured in mm.
# [3] = test system: Botrytis cinerea isolate A (resistant to BENLATE®); test: as above; format: cell-based; details: 3 days, 25 C, control 76
# Experimental: as §4
# Monilinia fructigena = test: Activity against Monilinia fructigena on apples (Golden Delicious); format: in vivo; details: for number of infected wounds (maximum 20): 5 days, 0 mg ai/l gives 20
# Experimental: Apples were surface sterilized, each punctured 5 times with a nail 2.1 mm in diameter, dipped in suspensions containing 0, 0.5, 5, 50, and 500 mg a.i. per 1. The active ingredient was (i) BK 202, (ii) benomyI(BENLATE®), (iii) iprodione(ROVRAL®). Four apples were punctured and treated with each concentration of the three pesticides giving a total of 20 wounds per concentration. The fruits were placed in plastic containers in rows with the wounds facing upwards. After 24 hours, the wounded areas were sprayed with a suspension of Monilinia fructigena containing 1×10^5 spores per ml. The containers were then covered with polyethylene bags and kept at room temperature (approximately22° C.).
# After 5 days the effects were assessed by counting the number of infected wounds (maximum 20 infected wounds per treatment).
# [4] = test system: Botrytis cinerea isolate C (sensitive, normal); test: In vitro agar growth assay, sensitive Botrytis cinerea; format: cell-based; details: 3 days, 25 C, control 74
# Experimental: as §4
# plants = test: Phytotoxic activity on plants; format: in vivo; details: at the concentrations used in Examples 1 to 7
# Botrytis cinerea [5] = test: Activity against Botrytis cinerea on tomato plants; format: in vivo; details: liquid suspension 0.035 mg active ingredient per ml; inoculated after 24 hours; 6 days incubation; controls all overgrown
# Experimental: Tomato plants (variety "First in Field", 3 weeks old) were treated with a liquid suspension containing 0.035 mg active ingredient per ml. The plants were kept 24 hours in a green house to dry before they were inoculated with a spore suspension containing 10^5 Botrytis cinerea spores per ml in 25% grapefruit juice. […] Control plants that were treated as above except for the application of the active ingredient in suspension were all overgrown with Botrytis cinerea.
# [6] = concentration 0.125 (unit not given)
# [7] = concentration 2 (unit not given)
# [8] = concentration 10 (unit not given)
smiles,measurement,setting,value
"CC[C@H](C)[C@H]1C(=O)NCC(=O)N(C)[C@@H](C(C)C)C(=O)N[C@@H](Cc2ccc(OC)cc2)C(=O)O[C@H](C)C(=O)N2CCCC[C@H]2C(=O)N(C)[C@@H](C(C)C)C(=O)N[C@@H](C(C)C)C(=O)N(C)[C@@H](CC(=O)O)C(=O)N(C)[C@@H](C(C)C)C(=O)N1C [BK 202, cyclo- Pec-MeVal-Val-MeAsp-MeVal-MeIle-Gly-MeVal-TyrOMe-D-Lact!] (cyclo(G[NMeV]Y(Me)[dLac][Pip][NMeV]V[NMeD][NMeV][NMeI]))",Ames spot tests,Ames spot tests,no indication of toxicity
same,fungicidal effect on injured apples,Botrytis cinerea [1],prevented the growth of fungus completely
same,fungicidal activity,Zygomycetous species,Only weak activity
same,inhibition of growth,V. inequalis,very strong
same,inhibition of growth,A. pisi,very strong
same,inhibition of growth,P. teres,very strong
same,inhibition of growth,B. cinerea,very strong
same,"growth, Isolate B",[2]; [6],0 mm
same,"growth, Isolate B",[2]; [7],0 mm
same,"growth, Isolate B",[2]; [8],0 mm
same,"growth, Isolate A",[3]; [6],0 mm
same,"growth, Isolate A",[3]; [7],0 mm
same,"growth, Isolate A",[3]; [8],0 mm
same,number of infected wounds (maximum 20),Monilinia fructigena; 0.5 mg ai/l dip,18
same,number of infected wounds (maximum 20),Monilinia fructigena; 5.0 mg ai/l dip,14
same,number of infected wounds (maximum 20),Monilinia fructigena; 50 mg ai/l dip,7
same,number of infected wounds (maximum 20),Monilinia fructigena; 500 mg ai/l dip,1
same,activity towards M. fructigena in comparison to the two commercial fungicides tested,Monilinia fructigena; versus BENLATE® and ROVRAL®,superior
same,"growth, Isolate C",[4]; [6],0 mm
same,"growth, Isolate C",[4]; [7],0 mm
same,"growth, Isolate C",[4]; [8],0 mm
same,phytotoxic activity,plants,no phytotoxic activity has been observed
same,attack from the fungus on tomato plants,Botrytis cinerea [5],No attack from the fungus was observed
